The test system of data set [1] is Klebsiella pneumoniae. Briefly: Antibacterial activity against multidrug-resistant Klebsiella pneumoniae NCTC 13368 measured after 10 passages by microdilution broth method. It is filed as functional.
The test system of data set [2] is Enterococcus faecalis. The experiment in a line: Antibacterial activity against vancomycin sensitive Enterococcus faecalis NCTC 775 by microdilution broth method. It is filed as functional.
Data set [3] can be described thus: Selectivity ratio of cytotoxicity against human WI38 cells to MIC for vancomycin resistant Enterococcus faecalis NCTC 12201. It is filed as toxicity, cell-based.
Data set [4] in a line: Selectivity ratio of cytotoxicity against human WI38 cells to MIC for methicillin resistant Staphylococcus aureus NCTC 13277. It is filed as toxicity, cell-based.
Data set [5] deals with Acinetobacter baumannii. The experiment in a line: Antimicrobial activity against Acinetobacter baumannii ATCC 17978 by microdilution broth method. It is filed as functional.
Data set [6] can be described thus: Selectivity ratio of cytotoxicity against human WI38 cells to MIC for vancomycin resistant Enterococcus faecium NCTC 12204. It is filed as toxicity, cell-based.
Data set [7] relates to Acinetobacter baumannii. The experiment in a line: Antimicrobial activity against multidrug-resistant Acinetobacter baumannii AYE by microdilution broth method. It is filed as functional.
Data set [8] in a line: Selectivity ratio of cytotoxicity against human WI38 cells to MIC for methicillin sensitive Staphylococcus aureus NCTC 6571. It is filed as toxicity, cell-based.
The nature of data set [9]: Selectivity ratio of cytotoxicity against human WI38 cells to MIC for Acinetobacter baumannii ATCC 17978. It is filed as toxicity, cell-based.
For data set [10], the system named is Staphylococcus aureus. The experiment in a line: Antibacterial activity against methicillin resistant Staphylococcus aureus NCTC 13277 by microdilution broth method. It is filed as functional.
Data set [11] in a line: Selectivity ratio of cytotoxicity against human WI38 cells to MIC for Klebsiella pneumoniae M6. It is filed as toxicity, cell-based.
Data set [12] can be described thus: Selectivity ratio of cytotoxicity against human WI38 cells to MIC for Pseudomonas aeruginosa PAO1. It is filed as toxicity, cell-based.
In another data set the test system is Enterococcus faecium. The experiment in a line: Antibacterial activity against vancomycin resistant Enterococcus faecium NCTC 12204 by microdilution broth method. It is filed as functional.
Data set [13] is described as follows: Selectivity ratio of cytotoxicity against human WI38 cells to MIC for multidrug-resistant Klebsiella pneumoniae NCTC 13368. It is filed as toxicity, cell-based.
In data set [14] the test system is Pseudomonas aeruginosa. Briefly: Antimicrobial activity against multidrug-resistant Pseudomonas aeruginosa NCTC 13437 by microdilution broth method. It is filed as functional.
Data set [15] concerns DNA. The experiment in a line: Stabilization of 5'-FAM-TAT-AGA-TAT-AGA-TAT-TTT-ATA-TCT-ATA-TCT-ATA-3'-TAMRA DNA (unknown origin) assessed as reduction in change in melting temperature at 1:1 to 5:1 ligand to DNA ratio measured after 3 hrs by FRET-based assay relative to control. It is filed as ADME, nucleic-acid assay.
In data set [16] the test system is Enterococcus faecalis. Briefly: Antibacterial activity against vancomycin resistant Enterococcus faecalis NCTC 12201 by microdilution broth method. It is filed as functional.
For data set [17], the system named is Klebsiella pneumoniae. Briefly: Antimicrobial activity against Klebsiella pneumoniae M6 by microdilution broth method. It is filed as functional.
Data set [18] can be described thus: Selectivity ratio of cytotoxicity against human WI38 cells to MIC for multidrug-resistant Pseudomonas aeruginosa NCTC 13437. It is filed as toxicity, cell-based.
A short description of data set [19]: Cytotoxicity against human WI38 cells assessed as cell viability at 20 uM measured after 24 hrs by MTT assay relative to control. It is filed as cell-based, WI-38. The settings on record: read-out: Activity.
Data set [20] relates to Staphylococcus aureus. Briefly: Antibacterial activity against methicillin sensitive Staphylococcus aureus NCTC 6571 by microdilution broth method. It is filed as functional.
Data set [21] can be described thus: Selectivity ratio of cytotoxicity against human WI38 cells to MIC for multidrug-resistant Acinetobacter baumannii AYE. It is filed as toxicity, cell-based.
The subject of data set [22] is Staphylococcus aureus. The experiment in a line: Antibacterial activity against methicillin resistant Staphylococcus aureus NCTC 13616 by microdilution broth method. It is filed as functional.
Data set [23] relates to Klebsiella pneumoniae. Briefly: Antimicrobial activity against multidrug-resistant Klebsiella pneumoniae NCTC 13368 by microdilution broth method. It is filed as functional.
Data set [24] is described as follows: Selectivity ratio of cytotoxicity against human WI38 cells to MIC for vancomycin sensitive Enterococcus faecalis NCTC 775. It is filed as toxicity, cell-based.
Data set [25] has as its system Pseudomonas aeruginosa. The experiment in a line: Antimicrobial activity against Pseudomonas aeruginosa PAO1 by microdilution broth method. It is filed as functional.
In data set [26] the test system is DNA. Briefly: Stabilization of 5'-FAM-TAT-ATA-TAG-ATA-TTT-TTT-TAT-CTA-TAT-ATA-3'-TAMRA DNA (unknown origin) assessed as reduction in change in melting temperature at 1:1 to 5:1 ligand to DNA ratio measured after 3 hrs by FRET-based assay relative to control. It is filed as ADME, nucleic-acid assay.
A short description of data set [27]: Selectivity ratio of cytotoxicity against human WI38 cells to MIC for methicillin resistant Staphylococcus aureus NCTC 13616. It is filed as toxicity, cell-based.

≈ marks a conversion by molar mass, not a printed value.

COLISTIN returned a minimal inhibitory concentration (MIC) with Klebsiella pneumoniae [1] of 32 µg/mL.
On to `COc1cc2c(cc1OCCCC(=O)Nc1cc(C(=O)Nc3ccc(-c4cc(C(=O)N5CCSCC5)n(C)c4)cc3)n(C)c1)N=C[C@@H]1CCCN1C2=O`, for which the MIC against Enterococcus faecalis [2] is at most 0.03 µg/mL; with Acinetobacter baumannii [5], 2 µg/mL (≈ 2.71 µM); against Acinetobacter baumannii [7], 2 µg/mL (≈ 2.71 µM); in the data set on Staphylococcus aureus [10], 0.06 µg/mL (≈ 0.0813 µM); in the data set with Enterococcus faecium it was at most 0.03 µg/mL; against Pseudomonas aeruginosa [14], over 32 µg/mL. Further, the MIC in the data set with Enterococcus faecalis [16] was at most 0.03 µg/mL; in the data set on Klebsiella pneumoniae [17] it was 4 µg/mL (≈ 5.42 µM); in the data set on Staphylococcus aureus [20], at most 0.03 µg/mL; against Staphylococcus aureus [22] it was at most 0.03 µg/mL; against Klebsiella pneumoniae [23], over 32 µg/mL; with Pseudomonas aeruginosa [25], over 32 µg/mL. The selectivity ratio in [3] was 100; in data set [4], 100; in data set [6], 100; in data set [8], 100; in data set [9], 10; in [11] it was 10. For the same compound, the selectivity ratio in [12] was determined as 10; in [13] it was 10; in data set [18], 10; in [21], 10; in [24], 100; in [27], 100. Further, the fold change (FC) in the data set on DNA [15] and in the data set on DNA [26] was 3 to 4 each time. Besides, in data set [19], the viability at 24 h, 20 µM was over 85%.
As for `COc1cc2c(cc1OCCCC(=O)Nc1cc(C(=O)Nc3ccc(-c4cc(C(=O)N5CCCCC5)n(C)c4)cc3)n(C)c1)N=C[C@@H]1CCCN1C2=O`, the minimum inhibitory concentration (MIC) was 0.125 µg/mL (≈ 0.174 µM) against Enterococcus faecalis [2]; 2 µg/mL (≈ 2.78 µM) in the data set with Acinetobacter baumannii [5]; 2 µg/mL (≈ 2.78 µM) in the data set with Acinetobacter baumannii [7]; 0.125 µg/mL (≈ 0.174 µM) in the data set on Staphylococcus aureus [10]; at most 0.03 µg/mL in the data set on Enterococcus faecium; over 128 µg/mL in the data set with Pseudomonas aeruginosa [14]. Further, the minimal inhibitory concentration (MIC) in the data set on Enterococcus faecalis [16] was at most 0.03 µg/mL; with Klebsiella pneumoniae [17], 16 µg/mL (≈ 22.2 µM); in the data set with Staphylococcus aureus [20] it was at most 0.03 µg/mL; against Staphylococcus aureus [22], 0.06 µg/mL (≈ 0.0834 µM); in the data set on Klebsiella pneumoniae [23], over 128 µg/mL; against Pseudomonas aeruginosa [25], over 128 µg/mL. Moreover, the selectivity ratio was determined as 100 in data set [3]; 100 in data set [4]; 100 in data set [6]; 100 in [8]; 10 in [9]; 10 in data set [11]. Also, the selectivity ratio in data set [12] was found to be 10; in [13], 10; in [18] it was 10; in data set [21] it was 10; in data set [24], 100; in data set [27], 100. For the same compound, the fold change (FC) in the data set with DNA [15] and in the data set with DNA [26] was 3 to 4 each time. For the same compound, the viability at 24 h, 20 µM in data set [19] is over 85%.
`CCN(CC)C(=O)c1cc(-c2ccc(NC(=O)c3cc(NC(=O)CCCOc4cc5c(cc4OC)C(=O)N4CCC[C@H]4C=N5)cn3C)cc2)cn1C`: the MIC was 0.5 µg/mL (≈ 0.706 µM) in the data set with Enterococcus faecalis [2]; 64 µg/mL (≈ 90.4 µM) against Acinetobacter baumannii [5]; 32 µg/mL (≈ 45.2 µM) with Acinetobacter baumannii [7]; 1 µg/mL (≈ 1.41 µM) with Staphylococcus aureus [10]; 0.25 µg/mL (≈ 0.353 µM) in the data set on Enterococcus faecium; over 128 µg/mL in the data set on Pseudomonas aeruginosa [14]. In addition, the MIC with Enterococcus faecalis [16] was 0.25 to 0.5 µg/mL (≈ 0.353 to 0.706 µM); with Klebsiella pneumoniae [17], over 128 µg/mL; against Staphylococcus aureus [20] it was 0.25 to 0.5 µg/mL (≈ 0.353 to 0.706 µM); with Staphylococcus aureus [22], 1 µg/mL (≈ 1.41 µM); against Klebsiella pneumoniae [23], over 128 µg/mL; in the data set on Pseudomonas aeruginosa [25], over 128 µg/mL. Also, the selectivity ratio turned out to be 100 in data set [3]; 100 in [4]; 100 in data set [6]; 100 in data set [8]; 10 in [9]; 10 in data set [11]. The selectivity ratio in [12] amounted to 10; in [13], 10; in data set [18], 10; in data set [21], 10; in data set [24], 100; in data set [27], 100. Moreover, the fold change (FC) in the data set with DNA [15] and in the data set on DNA [26] was 3 to 4 throughout. Moreover, the viability at 24 h, 20 µM in [19] was over 85%.
On to `COc1cc2c(cc1OCCCC(=O)Nc1cc(C(=O)Nc3ccc4oc(C(=O)N(C)C)cc4c3)n(C)c1)N=C[C@@H]1CCCN1C2=O`, for which the MIC is at most 0.125 µg/mL with Enterococcus faecalis [2]; 4 µg/mL (≈ 6.24 µM) against Acinetobacter baumannii [5]; 4 µg/mL (≈ 6.24 µM) with Acinetobacter baumannii [7]; at most 0.125 µg/mL against Staphylococcus aureus [10]; at most 0.125 µg/mL against Enterococcus faecium; 64 µg/mL (≈ 99.9 µM) against Pseudomonas aeruginosa [14]. The minimum inhibitory concentration (MIC) in the data set with Enterococcus faecalis [16] is 0.5 µg/mL (≈ 0.78 µM); against Klebsiella pneumoniae [17], 0.5 µg/mL (≈ 0.78 µM); with Staphylococcus aureus [20], at most 0.125 µg/mL; against Staphylococcus aureus [22], at most 0.125 µg/mL; against Klebsiella pneumoniae [23] it was 16 µg/mL (≈ 25 µM); in the data set with Pseudomonas aeruginosa [25], 128 µg/mL (≈ 200 µM). Moreover, the selectivity ratio in data set [3] was 100; in data set [4], 100; in [6], 100; in [8], 100; in data set [9] it was 10; in data set [11], 10. Further, the selectivity ratio amounted to 10 in data set [12]; 10 in [13]; 10 in [18]; 10 in data set [21]; 100 in data set [24]; 100 in data set [27]. For the same compound, the fold change (FC) in the data set with DNA [15] and in the data set on DNA [26] was 3 to 4 each time. The viability at 24 h, 20 µM in data set [19] was over 85%.
With `COc1cc2c(cc1OCCCC(=O)Nc1cc(C(=O)Nc3ccc(-c4cc(C(=O)N(C)C)n(C)c4)cc3)n(C)c1)N=C[C@@H]1CCCN1C2=O`, the MIC with Enterococcus faecalis [2] was at most 0.125 µg/mL; in the data set on Acinetobacter baumannii [5], 4 µg/mL (≈ 5.88 µM); against Acinetobacter baumannii [7] it was 4 µg/mL (≈ 5.88 µM); in the data set on Staphylococcus aureus [10], at most 0.125 µg/mL; against Enterococcus faecium it was at most 0.125 µg/mL; with Pseudomonas aeruginosa [14] it was over 128 µg/mL. For the same compound, the minimal inhibitory concentration (MIC) with Enterococcus faecalis [16] is at most 0.125 µg/mL; against Klebsiella pneumoniae [17] it was 2 µg/mL (≈ 2.94 µM); in the data set with Staphylococcus aureus [20], at most 0.125 µg/mL; against Staphylococcus aureus [22], at most 0.125 µg/mL; with Klebsiella pneumoniae [23], 8 µg/mL (≈ 11.8 µM); against Pseudomonas aeruginosa [25], 128 µg/mL (≈ 188 µM). In addition, the selectivity ratio was 100 in [3]; 100 in [4]; 100 in data set [6]; 100 in [8]; 10 in data set [9]; 10 in [11]. The selectivity ratio in [12] came to 10; in data set [13], 10; in data set [18], 10; in data set [21] it was 10; in [24] it was 100; in data set [27] it was 100. Also, the fold change (FC) in the data set on DNA [15] and in the data set with DNA [26] was 3 to 4 throughout. The viability at 24 h, 20 µM in [19] was over 85%.

Values taken from ChEMBL document CHEMBL4610120, “New Broad-Spectrum Antibiotics Containing a Pyrrolobenzodiazepine Ring with Activity against Multidrug-Resistant Gram-Negative Bacteria” (J Med Chem, 2020).
